From PMC5716993, “The interdomain flexible linker of the polypeptide GalNAc transferases dictates their long-range glycosylation preferences” (Nature Communications, 2017) come the findings set out here.

In this experiment the target is T1, GalNAc-T4 (Homo sapiens, UniProt Q8N4A0).
T1 construct: amino acid residues 36–578 of the human GalNAc-T4; histidine tag (C); made in house; host or cells: Pichia pastoris SMD1168 (pPICZαA, secreted)
In words: STD-NMR binding / epitope mapping. As to conditions: normalized to the highest STD response; 298 K, pH 7.4, UDP, MnCl2; in words. On the procedure: All NMR experiments were recorded on a Bruker Avance 600 MHz spectrometer equipped with a triple channel cryoprobe head. The^1H NMR resonances of the peptides 1–3 were completely assigned through standard 2D-TOCSY (30 and 80 ms mixing time) and 2D-NOESY experiments (400 ms mixing time). Solution conditions used for the NMR characterization studies were 1–3 mM (glyco)peptide, 25 mM perdeuterated tris-d11 in 90:10 H2O/D2O, 7.5 mM NaCl, and 1 mM DTT, uncorrected pH 7.4. The assignments were accomplished either at 278 or 298 K. The resonance of 2,2,3,3-tetradeutero-3-trimethylsilylpropionic acid (TSP) was used as a chemical shift reference in the^1H NMR experiments (δ TSP = 0 ppm). Peak lists for the 2D-TOCSY and 2D-NOESY spectra were generated by interactive peak picking using the computer aided resonance assignment (CARA) software.
Samples for STD experiments were prepared in perdeuterated 25 mM TRIS-d11 in deuterated water, 7.5 mM NaCl, and 1 mM DTT, uncorrected pH 7.4. STD-NMR experiments were performed at 298 K in the presence of 75 μM UDP, 75 μM MnCl2 with ~880 μM peptide (or GalNAc-O-Me) and 13.5 μM GalNAc-T4 giving a molar ratio of 65:1 peptide:GalNAc-T4.
The STD-NMR spectra were acquired with 1920 transients in a matrix with 64 k data points in t2 in a spectral window of 12335.53 Hz centered at 2819.65 Hz. An excitation sculpting module with gradients was employed to suppress the water proton signals. Selective saturation of the protein resonances (on resonance spectrum) was performed by irradiating at −1 ppm using a series of Eburp2.1000-shaped 90° pulses (50 ms, 1 ms delay between pulses) for a total saturation time of 2.0 s. For the reference spectrum (off resonance), the samples were irradiated at 100 ppm. Proper control experiments were performed with the ligands in the presence and absence of the protein in order to optimize the frequency for protein saturation (−1 ppm) and to ensure that the ligand signals were not affected. […] This nonspecific saturation was taken into account, by subtraction, when quantifying the STD-NMR data in the presence of the transferase. As well, a blank STD experiment with only the protein was also recorded. The substraction of this protein STD spectrum allowed eliminating the signal background of the protein. In all cases, to accomplish the STD-NMR-derived epitope mapping of each ligand, the STD-NMR total intensities were normalized with respect to the highest STD-NMR response. For Fig. 2b and Supplementary Fig. 1, the STD response of each amino acid corresponds to the average of STD percentages of all amino acid proton resonances that were measured with sufficient accuracy. The signal of the anomeric proton of as well as, the Hα protons of the Ala amino acids of glycopeptides could not be analyzed in the STD-NMR spectra due to their close proximity to the HDO resonance. Proton resonances, from Gly and Pro, appear in the same chemical shift region of the spectrum and were not discriminated.

T1 sequence (Q8N4A0 36-578): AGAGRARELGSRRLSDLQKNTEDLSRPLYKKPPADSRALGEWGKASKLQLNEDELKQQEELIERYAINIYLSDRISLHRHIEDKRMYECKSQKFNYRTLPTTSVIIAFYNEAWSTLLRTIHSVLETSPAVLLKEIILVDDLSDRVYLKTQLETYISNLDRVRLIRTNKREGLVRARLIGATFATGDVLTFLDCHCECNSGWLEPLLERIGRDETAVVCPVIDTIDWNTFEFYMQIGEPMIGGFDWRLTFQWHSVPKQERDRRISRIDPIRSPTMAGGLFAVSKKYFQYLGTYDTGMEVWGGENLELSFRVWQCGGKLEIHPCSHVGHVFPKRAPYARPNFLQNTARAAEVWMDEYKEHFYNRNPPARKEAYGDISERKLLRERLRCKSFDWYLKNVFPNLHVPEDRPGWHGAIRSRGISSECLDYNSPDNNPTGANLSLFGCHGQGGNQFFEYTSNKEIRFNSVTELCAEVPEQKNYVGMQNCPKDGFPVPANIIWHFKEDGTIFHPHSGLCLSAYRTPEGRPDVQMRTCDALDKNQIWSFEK

Take `CO[C@H]1O[C@H](CO)[C@H](O)[C@H](O)[C@H]1NC(C)=O` [α-methyl-GalNAc, reference compound]: the “STD-NMR-derived epitope mapping of GalNAc moiety” value was “the highest STD response corresponded to the H2 proton of the GalNAc moiety followed by a modest STD of protons H4, H3, and N-acetyl group”.
